Assay results published in patent publication US6660768B2, “Parasiticidal compositions and methods of use” (Schering-Plough Animal Health Corporation, priority 2001, dated 2003).

Experiments:
[1] = Example 3B: solubility of permethrin in PM (propylene glycol monomethyl ether), DM (diethylene glycol monomethyl ether) and PM or DPM (dipropylene glycol monomethyl ether)/d-limonene mixtures at low temperatures, seeded
Experimental: These solutions were poured into 100 mL tubes with screw top caps. These tubes were placed in the cold water bath and allowed to come to equilibrium at the temperature of the bath. […] The seeded preparations were then thoroughly shaken, replaced in the bath and allowed to remain in the bath for a 24 hour period. The preparations were then examined for crystallization, then again thoroughly agitated and replaced in the bath for an additional time period. Samples of the supernatant were removed after additional crystallization had occurred.
The solvent mixtures tested were: dipropylene glycol monomethyl ether/d-limonene and propylene glycol monomethyl ether/d-limonene.
These solvent mixtures were evaluated at ratios of 2:1, 1:1, 1:2, and then at 8:2 and 9:1 (the first number refers to one of the glycol ethers, the second number refers to d-limonene).

[2] = Example 3C: solubility of 30% permethrin in d-limonene/propylene glycol monomethyl ether mixtures at -15° C.; type: physicochemical; settings: initial 30% permethrin
Experimental: The temperature was regulated to −15° C. The solutions were placed in the bath and allowed to crystallize and reach equilibrium.

[3] = Example 3D: solubility of permethrin in propylene glycol monomethyl ether at 20° C. after crystallization at 0° C.; type: physicochemical
Experimental: The solution was placed in the bath, and continually stirred. The bath temperature was lowered to 0° C. After crystallization occurred in the solution, the bath temperature setting was raised to 20° C. and the stirred slurry was allowed to equilibrate over a three-day period. After this time, samples of the supernatant were pulled on consecutive days. The crystals were separated from the liquid layer by filtration, and the crystals were washed with petroleum ether. […] The crystals were washed to remove any residual solution that might contaminant their analysis.

CC1(C)C(C=C(Cl)Cl)C1C(=O)OCc1cccc(Oc2ccccc2)c1 (stereo not drawn) [permethrin]
% Total Permethrin ([1]; 70% permethrin in DPM/d-limonene, 50% d-limonene of solvent mixture, 0° C.): 65.66%
% Total Permethrin ([1]; 70% permethrin in DPM/d-limonene, 50% d-limonene of solvent mixture, 5° C.): 68.48%
% Total Permethrin ([1]; 70% permethrin in DPM/d-limonene, 50% d-limonene of solvent mixture, 10° C.): 66.70%
% Total Permethrin ([1]; 70% permethrin in DPM/d-limonene, 67% d-limonene of solvent mixture, 0° C.): 66.05%
% Total Permethrin ([1]; 70% permethrin in DPM/d-limonene, 67% d-limonene of solvent mixture, 5° C.): 69.38%
% Total Permethrin ([1]; 70% permethrin in DPM/d-limonene, 67% d-limonene of solvent mixture, 10° C.): 67.98%
% Total Permethrin ([1]; 70% permethrin in DPM/d-limonene, 100% d-limonene of solvent mixture, 0° C.): 64.61%
% Total Permethrin ([1]; 70% permethrin in DPM/d-limonene, 100% d-limonene of solvent mixture, 5° C.): 66.05%
% Total Permethrin ([1]; 70% permethrin in DPM/d-limonene, 100% d-limonene of solvent mixture, 10° C.): 69.30%
% Total Permethrin ([1]; 70% permethrin in PM/d-limonene, 0% d-limonene of solvent mixture, 0° C.): 57.91%
% Total Permethrin ([1]; 70% permethrin in PM/d-limonene, 0% d-limonene of solvent mixture, 5° C.): 64.79%
% Total Permethrin ([1]; 70% permethrin in PM/d-limonene, 10% d-limonene of solvent mixture, 10° C.): 66.70%
% Total Permethrin ([1]; 70% permethrin in PM/d-limonene, 20% d-limonene of solvent mixture, 10° C.): 66.92%
% Total Permethrin ([1]; 70% permethrin in PM/d-limonene, 33% d-limonene of solvent mixture, 0° C.): 65.20%
% Total Permethrin ([1]; 70% permethrin in PM/d-limonene, 33% d-limonene of solvent mixture, 5° C.): 67.36%
% Total Permethrin ([1]; 70% permethrin in PM/d-limonene, 33% d-limonene of solvent mixture, 10° C.): 67.80%
% Total Permethrin ([1]; 70% permethrin in PM/d-limonene, 50% d-limonene of solvent mixture, 0° C.): 65.36%
% Total Permethrin ([1]; 70% permethrin in PM/d-limonene, 50% d-limonene of solvent mixture, 5° C.): 69.65%
% Total Permethrin ([1]; 70% permethrin in PM/d-limonene, 50% d-limonene of solvent mixture, 10° C.): 68.40%
% Total Permethrin ([1]; 70% permethrin in PM/d-limonene, 67% d-limonene of solvent mixture, 0° C.): 65.94%
% Total Permethrin ([1]; 70% permethrin in PM/d-limonene, 67% d-limonene of solvent mixture, 5° C.): 68.33%
% Total Permethrin ([1]; 70% permethrin in PM/d-limonene, 100% d-limonene of solvent mixture, 0° C.): 64.61%
% Total Permethrin ([1]; 70% permethrin in PM/d-limonene, 100% d-limonene of solvent mixture, 5° C.): 66.05%
% permethrin remaining in solution ([1]; DM, 5° C., Original % permethrin 50): 46.00%
% permethrin remaining in solution ([1]; DM, 5° C., Original % permethrin 55): 51.74%
% permethrin remaining in solution ([1]; DM, 5° C., Original % permethrin 60): 55.09%
% permethrin remaining in solution ([1]; DM, 5° C., Original % permethrin 65): 60.22%
% permethrin remaining in solution ([1]; DM, 10° C., Original % permethrin 50): 46.80%
% permethrin remaining in solution ([1]; DM, 10° C., Original % permethrin 55): 50.72%
% permethrin remaining in solution ([1]; DM, 10° C., Original % permethrin 60): 56.17%
% permethrin remaining in solution ([1]; DM, 20° C., Original % permethrin 50): 50.55%
% permethrin remaining in solution ([1]; DM, 20° C., Original % permethrin 55): 55.14%
% permethrin remaining in solution ([1]; DM, 20° C., Original % permethrin 60): 60.05%
% permethrin remaining in solution ([1]; DM, 20° C., Original % permethrin 65): 64.85%
% permethrin remaining in solution ([1]; DM, 20° C., Original % permethrin 75): 74.20%
% permethrin remaining in solution ([1]; DM, 25° C., Original % permethrin 50): 49.43%
% permethrin remaining in solution ([1]; DM, 25° C., Original % permethrin 55): 53.98%
% permethrin remaining in solution ([1]; DM, 25° C., Original % permethrin 60): 61.10%
% permethrin remaining in solution ([1]; DM, 25° C., Original % permethrin 65): 64.25%
% permethrin remaining in solution ([1]; DM, 25° C., Original % permethrin 75): 74.53%
% permethrin remaining in solution ([1]; PM, 5° C., Original % permethrin 50): 46.61%
% permethrin remaining in solution ([1]; PM, 5° C., Original % permethrin 55): 52.71%
% permethrin remaining in solution ([1]; PM, 5° C., Original % permethrin 60): 56.69%
% permethrin remaining in solution ([1]; PM, 5° C., Original % permethrin 65): 61.50%
% permethrin remaining in solution ([1]; PM, 5° C., Original % permethrin 75): 70.89%
% permethrin remaining in solution ([1]; PM, 10° C., Original % permethrin 60): 59.08%
% permethrin remaining in solution ([1]; PM, 10° C., Original % permethrin 65): 61.63%
% permethrin remaining in solution ([1]; PM, 10° C., Original % permethrin 75): 72.22%
% permethrin remaining in solution ([1]; PM, 20° C., Original % permethrin 50): 50.60%
% permethrin remaining in solution ([1]; PM, 20° C., Original % permethrin 55): 55.54%
% permethrin remaining in solution ([1]; PM, 20° C., Original % permethrin 60): 61.27%
% permethrin remaining in solution ([1]; PM, 20° C., Original % permethrin 65): 66.25%
% permethrin remaining in solution ([1]; PM, 20° C., Original % permethrin 75): 76.84%
% permethrin remaining in solution ([1]; PM, 25° C., Original % permethrin 50): 51.28%
% permethrin remaining in solution ([1]; PM, 25° C., Original % permethrin 55): 56.19%
% permethrin remaining in solution ([1]; PM, 25° C., Original % permethrin 60): 60.99%
% permethrin remaining in solution ([1]; PM, 25° C., Original % permethrin 65): 66.71%
% permethrin remaining in solution ([1]; PM, 25° C., Original % permethrin 75): 75.82%
% permethrin in solution ([2]; 0% d-limonene in formula): 23.57%
% permethrin in solution ([2]; 20% d-limonene in formula): 24.78%
% permethrin in solution ([2]; 33% d-limonene in formula): 25.52%
% permethrin in solution ([2]; 50% d-limonene in formula): 27.20%
% permethrin in solution ([2]; 67% d-limonene in formula): 27.51%
% permethrin in solution ([2]; 100% d-limonene in formula): 25.93%
% Permethrin ([3]; Assay of Crystals (filtered, washed), as the cis isomer): 100% as the cis isomer
% Permethrin ([3]; Initial Assay of 70% Solution in propylene glycol monomethyl ether): 72.86%
solubility of permethrin ([3]; in propylene glycol monomethyl ether, 20° C.): greater than 70%
% Permethrin ([3]; supernatant, propylene glycol monomethyl ether, 20° C., 2nd Day after Equilibrium Reached): 72.96%
% Permethrin ([3]; supernatant, propylene glycol monomethyl ether, 20° C., Assay after Equilibrium Reached): 72.93%
